Data as given in US20230026869A1, “CRYSTAL FORM OF NUCLEOPROTEIN INHIBITOR AND USE THEREOF” (CHIA TAI TIANQING PHARMACEUTICAL GROUP CO., LTD., priority 2019, published 2023).

How the values were obtained:
CYP1A2 = molecular target: T1, CYP1A2 (Homo sapiens, UniProt P05177); test: Inhibition of human liver microsomal cytochrome P450 isoenzyme CYP1A2; format: in vitro ADME; conditions: human liver microsomes
T1 construct: from tissue; host or cells: human liver microsomes
T1 sequence (P05177 1-516): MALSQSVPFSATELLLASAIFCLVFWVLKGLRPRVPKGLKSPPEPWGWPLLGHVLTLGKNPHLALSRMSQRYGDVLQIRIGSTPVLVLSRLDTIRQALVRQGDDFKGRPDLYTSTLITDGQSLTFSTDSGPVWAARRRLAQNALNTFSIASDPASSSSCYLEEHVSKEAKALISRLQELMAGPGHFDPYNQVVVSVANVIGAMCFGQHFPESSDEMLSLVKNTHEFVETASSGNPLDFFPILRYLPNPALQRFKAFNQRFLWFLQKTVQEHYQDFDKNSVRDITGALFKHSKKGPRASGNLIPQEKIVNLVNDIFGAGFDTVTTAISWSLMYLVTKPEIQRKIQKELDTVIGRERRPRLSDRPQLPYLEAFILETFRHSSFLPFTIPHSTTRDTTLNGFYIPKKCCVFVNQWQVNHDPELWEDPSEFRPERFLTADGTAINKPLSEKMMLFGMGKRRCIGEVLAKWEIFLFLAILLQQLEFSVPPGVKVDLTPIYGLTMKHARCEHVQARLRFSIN
Method: (§1) Objective: The inhibitory effect of the test compound on the activity of human liver microsomal cytochrome P450 isoenzymes (CYP1A2, CYP2C9, CYP2C19, CYP2D6 and CYP3A4) was determined. […]

CYP2C9 = molecular target: T2, CYP2C9 (Homo sapiens, UniProt P11712); test: Inhibition of human liver microsomal cytochrome P450 isoenzyme CYP2C9; format: in vitro ADME; conditions: human liver microsomes
T2 construct: from tissue; host or cells: human liver microsomes
Method: as §1

hepatitis B virus = test: In vivo efficacy study, HDJ/HBV mouse model (HBV DNA in plasma and liver by qPCR); design: species or system mice
Method: Objective: The efficacy of the compound against hepatitis B virus in mice was determined through the HDJ/HBV mouse model.
Preparation of compound: the solvent was 10% polyethylene glycol-15 hydroxystearate; a certain amount of the tested compound of formula (I) was dissolved in an aqueous solution containing 10% polyethylene glycol-15 hydroxystearate, and the mixture was vortexed and sonicated to prepare a homogeneous suspension, and the suspension was stored at 4° C. for later use.
High pressure injection of the HBV plasmid DNA solution via the tail vein of mice: the day of plasmid injection was day 0, the day after injection was day 1, and so on. On day 0, all animals were injected by tail vein with a saline solution containing 10 μg of plasmid DNA at a volume of […] of body weight, and the injection was completed within 5 seconds.
Administration: all mice were administered intragastrically twice a day (8/16 h interval) on day 1-6 and once on day 7. All mice were euthanized in the afternoon on day 7. The body weight of the mice, which was monitored every day, remained stable throughout the experiment.
Sample collection: blood was collected from the submandibular vein 4 h after the first administration in the morning on days 1, 3, and 5. All blood samples were collected in K2-EDTA anticoagulation tubes, and centrifuged for 10 min at 4° C., 7000 g to prepare about 40 μL of plasma. All mice were euthanized by CO2 four hours after administration in the morning on day 7. Blood was collected from the heart, and the plasma preparation method was the same as above. Two liver tissues were collected with 70-100 mg each, and quick-frozen by liquid nitrogen. After all samples were collected, they were stored in a refrigerator (−80° C.) for HBV DNA content detection.
Sample analysis: all plasma samples and liver samples were detected for HBV DNA by qPCR.

[1] = 10 mg/kg intragastrically twice a day
[2] = 30 mg/kg intragastrically twice a day

T2 sequence (P11712 whole entry): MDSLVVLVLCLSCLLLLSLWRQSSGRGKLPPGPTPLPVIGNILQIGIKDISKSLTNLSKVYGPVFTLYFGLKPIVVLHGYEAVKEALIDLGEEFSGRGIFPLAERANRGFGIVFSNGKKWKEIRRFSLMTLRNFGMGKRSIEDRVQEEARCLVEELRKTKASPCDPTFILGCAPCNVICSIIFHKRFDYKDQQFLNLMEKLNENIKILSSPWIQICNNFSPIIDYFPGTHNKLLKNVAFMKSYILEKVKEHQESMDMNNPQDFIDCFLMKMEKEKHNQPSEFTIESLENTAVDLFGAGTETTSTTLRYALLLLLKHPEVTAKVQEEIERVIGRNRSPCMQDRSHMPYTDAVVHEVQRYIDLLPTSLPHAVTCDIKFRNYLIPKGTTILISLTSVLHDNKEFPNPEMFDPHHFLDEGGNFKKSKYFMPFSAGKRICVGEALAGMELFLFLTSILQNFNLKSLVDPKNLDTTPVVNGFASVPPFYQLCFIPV

Compound: CC1(NC(=O)C(=O)c2c(Cl)c(C(=O)Nc3cc(F)c(F)c(F)c3)c3n2CCC3)CCC(CC(=O)O)CC1 (stereo not drawn) [Compound of formula (I)]
- IC50 (CYP1A2): > 50 µM
- IC50 (CYP2C9): > 50 µM
- HBV-DNA reduction, Liver (day 7) (hepatitis B virus; [1]): 0.94 Δ Log10 copies/100 ng
- HBV-DNA reduction, Plasma (day 5) (hepatitis B virus; [1]): 2.0 Δ Log10 copies/μL
- HBV-DNA reduction, Liver (day 7) (hepatitis B virus; [2]): 2.36 Δ Log10 copies/100 ng
- HBV-DNA reduction, Plasma (day 5) (hepatitis B virus; [2]): 3.57 Δ Log10 copies/μL
